Laboratory results from patent US11351173B2, “Substituted pyrrolo[1,2-a]pyrimidines and their use in the treatment of medical disorders” (Bial—R&D Investments, S.A., priority 2014, dated 2022).
Converted amounts (≈) assume the structure as drawn.

What was measured:
[1] = target: T1, glucocerebrosidase (Gcase) (Homo sapiens, UniProt P04062); assay: Glucocerebrosidase (Gcase) activation assay, 4-methylumbelliferyl-beta-D-glucopyranoside substrate, fluorescence readout; type: biochemical; settings: for activation at 0.1 µM / Percent Gcase Activation, 0.1 μM Test Compound: test compound at 0.1 μM; for activation at 0.1 µM: read-out: Percent Gcase Activation, 0.1 μM Test Compound; for activation at 1 µM / Percent Gcase Activation, 1 μM Test Compound: test compound at 1.0 μM; for activation at 1 µM: read-out: Percent Gcase Activation, 1 μM Test Compound
T1 construct: micellar solution containing 10 nM GCase and 100 nM saposin C
T1 sequence (P04062 40-536): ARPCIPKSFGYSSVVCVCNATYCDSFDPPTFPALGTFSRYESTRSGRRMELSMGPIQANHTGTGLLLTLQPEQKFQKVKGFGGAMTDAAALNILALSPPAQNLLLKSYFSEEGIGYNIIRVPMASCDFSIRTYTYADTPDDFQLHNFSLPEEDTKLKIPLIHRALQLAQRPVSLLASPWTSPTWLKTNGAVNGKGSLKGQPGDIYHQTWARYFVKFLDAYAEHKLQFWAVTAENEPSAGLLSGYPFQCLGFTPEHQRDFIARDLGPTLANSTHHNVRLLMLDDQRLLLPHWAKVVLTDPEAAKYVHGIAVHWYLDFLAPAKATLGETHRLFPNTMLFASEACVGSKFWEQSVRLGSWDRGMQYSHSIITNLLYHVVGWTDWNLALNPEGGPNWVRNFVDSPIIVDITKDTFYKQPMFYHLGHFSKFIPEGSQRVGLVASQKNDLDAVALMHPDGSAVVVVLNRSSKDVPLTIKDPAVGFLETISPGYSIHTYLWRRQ
Experimental: The ability of exemplary compounds to activate glucocerebrosidase (Gcase) was measured.
A 484 μL aliquot of a 1.0 mg/mL solution of phosphatidylserine (PS) (Sigma P7769) in chloroform was evaporated under a stream of nitrogen for 1 hour. The lipid film was dissolved over 4 minutes of vigorous vortexing in 40 mL of 176 mM K2HPO4/50 mM citric acid (pH 4.7) containing 7.5 μL of triton X-100, resulting in a mixed micellar preparation with a composition of 0.32 mM triton and 0.37 mol % PS. 4-Methylumbelliferyl-beta-D-glucopyranoside (ACROS-337025000) was dissolved in the micellar solution to a final concentration of 2 mM for use as the reaction substrate.
Test compounds were diluted to the desired concentrations with dimethylsulfoxide (DMSO) from 10 mM stocks, and 0.41 μL of the DMSO compound mixture was added to 100 μL of micellar solution containing 10 nM GCase and 100 nM saposin C (Enzo ALX-201-262-C050). Pre-incubation was allowed to occur for 30 minutes at room temperature, after which the reaction was initiated by combining 25 μL of substrate solution with 25 μL of compound/GCase/saposin mixture. The reaction proceeded for 15 minutes at room temperature and was stopped by adding 150 μL of 1M glycine, pH 12.5. The endpoint of the reaction was monitored by measuring fluorescence intensity (excitation: 365 nm; emission: 440 nm) on a SpectraMax i3 instrument (Molecular Devices). Test compounds were screened at 1.0 and 0.1 μM final concentration, and subsequent 8-point dose response curves were obtained using 3-fold dilutions from a maximum final concentration of 5 μM.

[2] = Compound solubility in water; settings: water; for solubility: Compound Solubility in Water

Row | activation at 0.1 µM [1] | activation at 1 µM [1] | solubility [2] | solubility ([2]; in water) | Percent Gcase Activation, 0.1 μM Test Compound [1] | Percent Gcase Activation, 1 μM Test Compound [1] | Compound Solubility in Water [2] | Compound
1 | > 20% | > 60% | 0.04 µg/mL (≈ 0.11 µM) |  |  |  |  | C#Cc1ccc(NC(=O)c2ccn3c(C)cc(C)nc23)c(OCCOC)c1 [III-183]
2 | 10 to 20% | > 60% |  | 11 µg/mL (≈ 32 µM) |  |  |  | CC[C@@H](C)O[C@H]1CC[C@H](NC(=O)c2ccn3c(C)cc(C)nc23)CC1 [III-241]
3 | < 10% | 30 to 60% |  | 0.1 µg/mL (≈ 0.248 µM) |  |  |  | Cc1cc(C)n2ccc(C(=O)Nc3ccc4c(c3)C(Oc3nnc(C)o3)CC4)c2n1 (stereo not drawn) [III-221]
4 | < 10% | 30 to 60% |  | 3 µg/mL (≈ 7.02 µM) |  |  |  | COCc1cc(C2CC2)n2ccc(C(=O)NC3(C)CCOc4cc(F)c(F)cc43)c2n1 (stereo not drawn) [III-270]
5 | < 10% | < 30% |  | 27.7 µg/mL (≈ 81.9 µM) |  |  |  | Cc1cc(C)n2ccc(C(=O)NC3CCC(c4ncco4)CC3)c2n1 (stereo not drawn) [III-245]
6 | < 10% | < 30% |  | 4.1 µg/mL (≈ 11.2 µM) |  |  |  | Cc1cc(C)n2ccc(C(=O)N[C@H]3CC[C@H](Oc4cccnc4)CC3)c2n1 [III-206]
7 | > 20% | > 60% |  | 3.5 µg/mL (≈ 11.5 µM) |  |  |  | Cc1ccnc2c(C(=O)N[C@H]3CCCc4ccccc43)ccn12 [III-255]
8 | > 20% | > 60% | 1.5 µg/mL (≈ 4.2 µM) |  |  |  |  | Cc1cc(C)n2ccc(C(=O)NC3CCOc4ccc(F)c(F)c43)c2n1 (stereo not drawn) [III-172]
9 | > 20% | > 60% |  | 0.9 µg/mL (≈ 2.82 µM) |  |  |  | Cc1ccnc2c(C(=O)NC3(C)CCCc4ccccc43)ccn12 (stereo not drawn) [III-262]
10 | 10 to 20% | > 60% |  | 23.8 µg/mL (≈ 71 µM) |  |  |  | COC1CC(NC(=O)c2ccn3c(C)cc(C)nc23)c2ccccc21 (stereo not drawn) [III-285]
11 | < 10% | < 30% | 2.5 µg/mL (≈ 6.84 µM) |  |  |  |  | [2H]C1(NC(=O)c2ccn3c(C)cc(NC(C)=O)nc23)CCOc2ccccc21 (stereo not drawn) [III-163]
12 | > 20% | > 60% | 0.07 µg/mL (≈ 0.206 µM) |  |  |  |  | [2H]c1c(C([2H])([2H])[2H])nc2c(C(=O)Nc3ccc(-c4cocn4)cc3)cc([2H])n2c1C([2H])([2H])[2H] [III-158]
13 | > 20% | > 60% |  | 0.7 µg/mL (≈ 2 µM) |  |  |  | Cc1cc(C)n2c(F)cc(C(=O)Nc3ccc(-c4cocn4)cc3)c2n1 [III-271]
14 | > 20% | > 60% |  | 8.7 µg/mL (≈ 25.3 µM) |  |  |  | Cc1cc(C)n2ccc(C(=O)N[C@H]3CC[C@H](OCC(C)C)CC3)c2n1 [III-288]
15 | > 20% | > 60% |  | 0.2 µg/mL (≈ 0.536 µM) |  |  |  | Cc1cc(C(F)(F)F)nc2c(C(=O)NC3CCCc4ccccc43)ccn12 (stereo not drawn) [III-251]
16 | 10 to 20% | > 60% | 13.1 µg/mL (≈ 41.5 µM) |  |  |  |  | CCCCO[C@H]1C[C@H](NC(=O)c2ccn3c(C)cc(C)nc23)C1 [III-198]
17 |  |  |  | 0.01 µg/mL (≈ 0.0287 µM) | *** (greater than 20% Gcase activation) | +++ (Gcase activation greater than 60%) |  | Cc1cc(C)n2ccc(C(=O)Nc3ccc(-c4cccs4)nc3)c2n1 [III-275]
18 | > 20% | > 60% |  | 2.1 µg/mL (≈ 6.22 µM) |  |  |  | COc1ccccc1C(C)(C)NC(=O)c1ccn2c(C)cc(C)nc12 [III-233]
19 | > 20% | > 60% | 7 µg/mL (≈ 20.6 µM) |  |  |  |  | Cc1cc(C)n2ccc(C(=O)NC3CCOc4cccc(F)c43)c2n1 (stereo not drawn) [III-195]
20 |  |  |  | 0.005 µg/mL (≈ 0.0142 µM) | *** (greater than 20% Gcase activation) | +++ (Gcase activation greater than 60%) |  | CCCCCOc1ccc(NC(=O)c2ccn3c(C)cc(C)nc23)cc1 [III-273]
21 | > 20% | > 60% |  |  |  |  | 0.4 µg/mL | Cc1cc(C)n2ccc(C(=O)NC3CCC(c4cccs4)CC3)c2n1 (stereo not drawn) [III-187]
22 | > 20% | > 60% |  | 0.9 µg/mL (≈ 2.82 µM) |  |  |  | Cc1cc(C)n2ccc(C(=O)NC3CCc4ccccc4C3)c2n1 (stereo not drawn) [III-228]

Second part, the compound before the results:

Row | Compound | activation at 0.1 µM [1] | activation at 1 µM [1] | solubility [2] | solubility ([2]; in water) | Percent Gcase Activation, 0.1 μM Test Compound [1] | Percent Gcase Activation, 1 μM Test Compound [1] | Compound Solubility in Water [2]
23 | C#Cc1cccc(C(C)(C)NC(=O)c2ccn3c(C)cc(COC)nc23)c1 [III-64] | > 20% | > 60% | 0.5 µg/mL (≈ 1.38 µM) |  |  |  | 
24 | CCCCO[C@H]1CC[C@H](NC(=O)c2ccn3c(C(C)C)cc(COC)nc23)CC1 [III-37] | 10 to 20% | > 60% | 18 µg/mL (≈ 44.8 µM) |  |  |  | 
25 | Cc1cc(C)n2ccc(C(=O)Nc3ccc(Cl)c(COc4cccnc4)c3)c2n1 [III-15] | > 20% | > 60% | < 0.1 µg/mL |  |  |  | 
26 | Cc1cc(O)n2ccc(C(=O)Nc3ccc(-c4cocn4)cc3)c2n1 [III-55] | < 10% | < 30% | 1.8 µg/mL (≈ 5.38 µM) |  |  |  | 
27 | COC1CCc2ccc(NC(=O)c3ccn4c(C)cc(C)nc34)cc21 (stereo not drawn) [III-119] | > 20% | > 60% | 2.6 µg/mL (≈ 7.75 µM) |  |  |  | 
28 | Cc1cc(Cl)nc2c(C(=O)N[C@H]3CC[C@H](OCC(C)C)CC3)ccn12 [III-73] | > 20% | > 60% | 2 µg/mL (≈ 5.5 µM) |  |  |  | 
29 | CCCCO[C@H]1CC[C@H](NC(=O)c2ccn3c(COC)cc(C)nc23)CC1 [III-33] | 10 to 20% | > 60% | 21 µg/mL (≈ 56.2 µM) |  |  |  | 
30 | Cc1cc(C)n2ccc(C(=O)NC3CC=C(CCCO)c4ccccc43)c2n1 (stereo not drawn) [III-144] | 10 to 20% | > 60% | 0.8 µg/mL (≈ 2.13 µM) |  |  |  | 
31 | COc1cc(NC(=O)c2ccn3c(C)cc(C)nc23)ccc1-c1cocn1 [III-108] | > 20% | > 60% | 0.2 µg/mL (≈ 0.552 µM) |  |  |  | 
32 | Cc1cc(C)n2ccc(C(=O)Nc3ccc(-c4ccco4)nc3)c2n1 [III-10] | > 20% | > 60% | 0.3 µg/mL (≈ 0.903 µM) |  |  |  | 
33 | CCCCO[C@H]1CC[C@H](NC(=O)c2ccn3c(COC)cc(C(C)C)nc23)CC1 [III-36] | > 20% | > 60% | 3.5 µg/mL (≈ 8.72 µM) |  |  |  | 
34 | Cc1cc(C)n2ccc(C(=O)Nc3ccc4c(c3)CCC4)c2n1 [III-148] | > 20% | > 60% | 0.06 µg/mL (≈ 0.196 µM) |  |  |  | 
35 | COCCCO[C@H]1CC[C@H](NC(=O)c2ccn3c(C)cc(C)nc23)CC1 [III-107] | < 10% | < 30% | 13.2 µg/mL (≈ 36.7 µM) |  |  |  | 
36 | Cc1cc(C)n2ccc(C(=O)N[C@H]3CC[C@H](Oc4ncccn4)CC3)c2n1 [III-90] | < 10% | < 30% | 2.4 µg/mL (≈ 6.57 µM) |  |  |  | 
37 | CCCCO[C@H]1CC[C@H](NC(=O)c2ccn3c(C)cc(F)nc23)CC1 [III-72] | < 10% | 30 to 60% | 14.3 µg/mL (≈ 41.2 µM) |  |  |  | 
38 | COCCOCc1cc(C)n2ccc(C(=O)N[C@H]3CCCc4ccccc43)c2n1 [III-43] | 10 to 20% | > 60% | 25.2 µg/mL (≈ 64 µM) |  |  |  | 
39 | CCCCO[C@H]1CC[C@H](NC(=O)c2ccn3c(COC)cc(C(F)F)nc23)CC1 [III-34] | 10 to 20% | > 60% | 1.8 µg/mL (≈ 4.4 µM) |  |  |  | 
40 | Cc1cc(C)n2ccc(C(=O)N[C@H]3CC[C@H](OC4CCCC4)CC3)c2n1 [III-132] | > 20% | > 60% | 5.8 µg/mL (≈ 16.3 µM) |  |  |  | 
41 | Cc1cc(C(F)F)nc2c(C(=O)Nc3ccc(-c4cocn4)cc3)ccn12 [III-30] | > 20% | 30 to 60% | 0.06 µg/mL (≈ 0.163 µM) |  |  |  | 
42 | COc1cc(C)n2ccc(C(=O)Nc3ccc(-c4cocn4)cc3)c2n1 [III-52] | 10 to 20% | 30 to 60% | 0.1 µg/mL (≈ 0.287 µM) |  |  |  | 
43 | COCC#Cc1ccc(NC(=O)c2ccn3c(C)cc(C)nc23)cc1 [III-4] | > 20% | > 60% | < 1.5 µg/mL |  |  |  | 
44 | COC1CCCCC1NC(=O)c1ccn2c(C)cc(C)nc12 (stereo not drawn) [III-98] | < 10% | < 30% | 29.9 µg/mL (≈ 99.2 µM) |  |  |  | 
45 | C#Cc1ccc(C(C)(C)NC(=O)c2ccn3c(COC)cc(COC)nc23)cc1 [III-156] | 10 to 20% | > 60% | 13.9 µg/mL (≈ 35.5 µM) |  |  |  | 
